Tests used:
[1] = tested on: ARID1A mutant HT1376 bladder cancer xenografts; test: HT1376 xenograft tumor growth inhibition; format: in vivo, mice; settings: ARID1A mutated HT1376 xenograft, 75 mg/kg QD; for tumor growth inhibition (TGI) compared to vehicle: day 27
Description: Data represented as mean tumor volume+SEM, with n=5 mice per group for all groups except 150 mg/kg, which had n=3. P-values calculated using 2-way ANOVA up to day 30, ns=p>0.05, *p<0.05. […]
Cell line derived xenograft tumor experiments were performed at WuXi AppTec, Shanghi, China. Patient derived xenograft experiments were performed at Crown BioScience Inc., Taicang Jiangsu Province, China, or Champions Oncology, Rockville, MD, US. All the procedures related to animal handling, care and the treatment in the xenograft studies were performed according to the guidelines approved by the Institutional Animal Care and Use Committee (IACUC) of WuXi AppTec or Crown BioScience Inc. following the guidance of the Association for Assessment and Accreditation of Laboratory Animal Care (AAALAC). The mice were kept in individual ventilation cages at constant temperature and humidity with 3-5 animals in each cage. Mice were checked daily for any effects of tumor growth and/or treatments on normal behavior such as mobility, food and water consumption, body weight gain/loss, eye, and any other abnormal effects. […] Animal body weight was monitored regularly as an indirect measurement of toxicity. Supplemented diet was provided after cell inoculation for all groups to help with body weight maintenance. If an animal lost >15% body weight, their treatments were suspended accordingly then resumed when body weight loss returned to <10%.
The HT1376 and HT1197 bladder cancer cell lines and Karpas-422 lymphoma cell line were expanded in vitro under routine subculturing procedures in the medium recommended by the supplier, harvested while in the exponential growth phase, and counted for tumor inoculation. For HT1376 and Karpas-422 studies, female CB17 SCID mice at 6-8 weeks of age were used for study initiation; for the HT1197 study, female Balb/c nude mice at 6-8 weeks of age were used. Each mouse was inoculated subcutaneously in the right flank with tumor cells in 0.2 ml PBS mixed with Matrigel (BD Biosciences); 5×10^6 cells per injection were used for HT1376 and Karpas-422 cell lines and 1×10^7 cells per injection for HT1197 cells. […] Mice undergoing extended dosing holidays due to body weight loss (>10 days, n=2 mice in the 150 mg/kg Compound 1 HT1376 group only), were censored from the study and not included in the data presented.
Tumor size was measured thrice weekly in two dimensions using a caliper, and the volume was expressed in mm3 using the formula: V=0.5a×b2 where a and b are the long and short diameters of the tumor, respectively. TGI was calculated for each group using the formula: TGI (%)=[1−(Ti−T0)/(Vi−V0)]×100; Ti is the average tumor volume of a treatment group on a certain day, T0 is the average tumor volume of the treatment group on the day of treatment start, Vi is the average tumor volume of the vehicle control group on the same day with Ti, and V0 is the average tumor volume of the vehicle group on the day of treatment start.
To further explore the potential dose dependence of Compound 1 on tumor growth inhibition in vivo, HT1376 xenograft studies were carried out using Compound 1 doses from 10 to 150 mg/kg QD orally once daily (PO, QD). […]

[2] = long-term cell viability assays in vitro, comparison of PRC2 inhibitors; format: cell-based
Description: (§1) Response of Compound 1 treatment relative to other EZH2, dual EZH1 and EZH2, or EED inhibitors was analyzed in vitro and in vivo.

[3] = pharmacokinetics in the ARID1A mutant HT1376 xenograft mouse model; format: in vivo
Description: as §1

[4] = CB17 SCID, mouse, in vivo, 75 mg/kg
[5] = Day 1, 75 mg/kg, HT1376 xenograft mouse, plasma

## COc1cc(C)[nH]c(=O)c1CNC(=O)c1c(C)n([C@H](C)C2CCN(CC(F)(F)F)CC2)c2ccccc12 [CPI-1205]
[1]
  tumor growth inhibition (TGI) compared to vehicle: 40%
[2]
  GI50: 0.574 µM
[3]; [4]
  Cmax: 50.8 µg/mL
  T1/2: 1.24 h
  Tmax: 0.50 h
[3]; mouse, in vivo, 75 mg/kg
  AUClast (hg*ng/mL): 59900 hg*ng/mL

## Cc1ncccc1-c1cnc(NCc2c(F)ccc3c2CCO3)n2cnnc12 [MAK683]
[2]
  GI50: 0.073 µM
[3]; mouse, in vivo, 75 mg/kg
  AUClast (hg*ng/mL): 13100 hg*ng/mL
  Cmax: 5.66 µg/mL
  T1/2: 1.18 h
  Tmax: 1.00 h

## COc1cc(C)[nH]c(=O)c1CN1CCc2c(Cl)cc([C@H](OC)C3COC3)c(Cl)c2C1=O [PF-06821497]
[1]
  tumor growth inhibition (TGI) compared to vehicle: 41%
[2]
  GI50: ~0.005 µM
[3]; mouse, in vivo, 75 mg/kg
  AUClast (hg*ng/mL): 3380 hg*ng/mL
  Cmax: 3.74 µg/mL
  T1/2: 1.01 h
  Tmax: 0.50 h

## CCN(c1cc(-c2ccc(CN3CCOCC3)cc2)cc(C(=O)NCc2c(C)cc(C)[nH]c2=O)c1C)C1CCOCC1 [tazemetostat]
[1]
  tumor growth inhibition (TGI) compared to vehicle: 32%
[2]
  GI50: 0.385 µM
[3]; [5]
  AUClast (hg*ng/mL): 23200 hg*ng/mL
  Cmax: 9.53 µg/mL
  T1/2: 1.43 h
  Tmax: 0.50 h

## Cc1cc(C)c(CNC(=O)c2cc(Cl)c3c(c2C)O[C@@](C)([C@H]2CC[C@H](N(C)C)CC2)O3)c(=O)[nH]1 [valemetostat]
[1]
  tumor volume course during treatment: did not reach full regression
[2]
  GI50: 0.018 µM
[3]; [5]
  AUClast (hg*ng/mL): 7600 hg*ng/mL
  Cmax: 3.09 µg/mL
  T1/2: 3.00 h
  Tmax: 1.33 h

— patent US20260021082A1, “EZH2 INHIBITION THERAPIES FOR THE TREATMENT OF AT-RICH INTERACTIVE DOMAIN-CONTAINING PROTEIN 1A (ARID1A) MUTATED CANCERS” (Constellation Pharmaceuticals, Inc., priority 2022, published 2026)
